# Test results: patent publication EP1708721B1, “MYOCARDIAL PERFUSION IMAGING USING ADENOSINE RECEPTOR AGONISTS” (Gilead Sciences, Inc., priority 2004, dated 2005)
# Tests used:
# awake rats = experiment: Example 5: sympathoexcitation, heart rate, blood pressure and plasma catecholamines after i.v. bolus; type: in vivo
# Experimental: The present study was carried out to determine whether CVT-3146, a selective A2A adenosine receptor agonist, causes sympathoexcitation. CVT-3146 (0.31µg/kg-50 µg/kg) was given as a rapid i.v. bolus to awake rats and heart rate (HR) and blood pressure (BP) were monitored. CVT-3146 caused an increase in BP and systolic pressure (SP) at lower doses while at higher doses there was a decrease in BP and SP. […] The increase in HR was evident at the lowest dose of CVT-3146 at which there was no appreciable decrease in BP. ZM241385 (30 µg/kg , N=5), an A2A receptor antagonist, attenuated the decrease in BP (CVT-3146: 14±3%, ZM: 1±1 %) and the increase in HR (CVT: 27±3%, ZM: 18±3%) caused by CVT-3146. Pretreatment with metoprolol (MET, 1 mg/kg, n=5), a beta-blocker, attenuated the increase in HR (CVT: 27±3%, MET: 15±2%), but had no effect on hypotension caused by CVT-3146. In the presence of hexamethonium (HEX, 10 mg/kg, n=5), a ganglionic blocker, the tachycardia was prevented (CVT: 27±3%, HEX: -1±2%), but BP was further reduced (CVT: -11±2%, HEX: -49±5%).
# [1] = tested on: subjects (26 men, 9 women); experiment: Example 6: stress/rest SPECT myocardial perfusion imaging, adenosine versus CVT-3146; type: in vivo, human; details: SPECT MPI, CVT-3146 400 or 500 mcg IV bolus, A infusion
# Experimental: To determine the ability of CVT-3146 to produce coronary hyperemia and accurately detect CAD, 35 subjects (26 men, 9 women; 67±10 years) underwent both A and CVT-3146 stress/rest MPI, with 10.0±9.1 days between studies. […] CVT-3146 [400 mcg (n=18), 500 mcg (n=17)] was administered as an IV bolus immediately followed by a saline flush, and then a Tc-99m radiopharmaceutical [sestamibi (n=34), tetrofosmin (n=1)]. SPECT images were uniformly processed, intermixed with control studies (normal and fixed-only defects), and interpreted by three observers in a blinded fashion using a 17-segment model. Quantitative analysis was also performed using 4D MSPECT. In addition to three separate readings, a consensus interpretation was performed and then a direct, same-screen comparison of A and CVT-3146 images undertaken to determine relative differences, using 5 regions per study.
# humans = experiment: Example 1: open label study, CBFv by Doppler flow wire after IV bolus in catheterization patients; type: in vivo; details: intracoronary (IC) injection of 18 µg
# Experimental: The purpose of this open label study was to determine the magnitude and duration of effect of CVT-3146 (10-500 µg) on CBFv in humans.
# METHODS: Patients undergoing a clinically indicated coronary catheterization with no more than a 70% stenosis in any coronary artery and no more than a 50% stenosis of the study vessel had CBFv determined by Doppler flow wire. Study subject were selected after measuring baseline and peak CBFv after an intracoronary (IC) injection of 18 µg of Ado. Twenty-three patients, who were identified as meeting the study criteria of having a peak to baseline CBFv ratio of ≥ 2.5 in response to Adenosine, received a rapid (≤ 10 sec) peripheral IV bolus of CVT-3146; Doppler signals were stable and interpretable over the time-course of the increase in CBFv in 17 patients.
# awake dogs = experiment: Example 8: vasodilator effects in different vascular beds of chronically instrumented dogs; type: in vivo; details: 250 µg/kg
# From the text: In this study the vasodilator effects of CVT-3146 were compared to those of ADO in different vascular beds in awake dogs. Dogs were chronically instrumented for measurements of the blood flow in coronary (CBF), mesenteric (MBF), hind limb (LBF), and renal (RBF) vascular beds, and hemodynamics.
# [2] = in the presence of hexamethonium 10 mg/kg, n=5
# [3] = pretreatment with metoprolol 1 mg/kg, n=5
structure (smiles),measurement,setting,value
Nc1nc(NCCc2ccc(O)cc2)nc2nc(-c3ccco3)nn12 [ZM241385],decrease in BP caused by CVT-3146,"awake rats; with ZM241385 30 µg/kg, N=5",1±1%
same,increase in HR caused by CVT-3146,"awake rats; with ZM241385 30 µg/kg, N=5",18±3%
Nc1ncnc2c1ncn2[C@@H]1O[C@H](CO)[C@@H](O)[C@H]1O [adenosine],"summed scores following stress, quantitative methods of analysis",[1]; 4D MSPECT,13.7±1.5
same,"summed scores following stress, visual",[1]; 17-segment model,13.9±1.5
same,peak to baseline ratio (CBFv),humans,3.2 ± 0.5
same,duration for CBF above 2-fold of the baseline,awake dogs,16 ± 3 s
C[N+](C)(C)CCCCCC[N+](C)(C)C [hexamethonium],BP (change) caused by CVT-3146,awake rats; [2],-49±5%
same,tachycardia (HR change) caused by CVT-3146,awake rats; [2],-1±2%
COCCc1ccc(OCC(O)CNC(C)C)cc1 (stereo not shown) [metoprolol],effect on hypotension caused by CVT-3146,awake rats; [3],no effect
same,increase in HR caused by CVT-3146,awake rats; [3],15±2%
